From patent publication US20220213092A1, “BICYCLIC PYRAZOLE BRUTON'S TYROSINE KINASE INHIBITORS” (AbbVie Inc., priority 2020, published 2022)

Tested on: CYP3A4
Experiment: CYP3A4 induction assay (CYP 3A4 mRNA by qPCR in cryopreserved human hepatocytes)
Assay type: in vitro ADME
Conditions: 10 μM compound; for CYP3A4 Ind. (%): value in brackets: induction relative to prototypical inducer rifampicin = 100%
Description: CYP induction was evaluated in vitro by determining the expression levels of CYP 3A4 mRNA using the qPCR (quantitative polymerase chain reaction) assay. On day one, cryopreserved human hepatocytes were thawed in prewarmed (37° C.) thawing medium (cryopreserved hepatocyte recovery medium, Gibco™ CM 7000; Thermo Fisher Scientific), centrifuged (1000 g for 10 minutes) and resuspended in plating medium (Gibco™ CM3000—Williams Medium E supplemented with hepatocytes plating supplement pak-serum containing; Thermo Fisher Scientific). Cells were counted by trypan blue exclusion using a hemocytometer and adjusted to a cell density of […]. Thereafter, […] of cell suspension was aliquoted per well in a 96-well plate, resulting in 60,000 cells/well. Plates were shaken in the north-south and east-west direction during plating. Plated cells were incubated at 37° C./5% CO2 in a humidified cell culture incubator for 4-6 hours. During this time, incubation medium (Gibco™ CM4000, cell maintenance supplement pack; Thermo Fisher Scientific) was mixed with Gibco™ Geltrex™ (Thermo Fischer Scientific) at the appropriate Geltrex™ protein concentration. Following recovery, medium was removed from cells and replaced with freshly prepared incubation medium. Cells were incubated overnight in a cell culture incubator (37° C./5% CO2).
The next day the incubation medium was prepared by combining the hepatocyte maintenance supplement pack with Williams medium E. The medium was warmed to 37° C. 1000× dimethyl sulfoxide compound stocks were prepared to the desired concentrations. 10 mM compound stocks in dimethyl sulfoxide were diluted (1 μL to 1 mL CM4000; final concentration=10 μM). Overlay medium was aspirated and […] dose solution added to the desired labeled 96 well plate. Cells were returned to the humidified incubator overnight (37° C./5% CO2).
On day 3, incubation medium was warmed to 37° C., and the same process for compound preparation repeated as in day 2, i.e. 1000× dimethyl sulfoxide compound stocks were prepared to the desired concentration, diluted (1:1000) in warm incubation medium, and this freshly prepared medium was used to replace treatment medium. Cells were returned to the humidified incubator (37° C./5% CO2) overnight.
On day 4, RNA isolation was performed. Prior to RNA isolation, cell viability was assessed using presto blue reagent. 10× dilution of PrestoBlue™ reagent (Thermo Fisher Scientific) was prepared by mixing 1.4 mL PrestoBlue™ with 12.6 mL incubation medium. Medium was aspirated from cells, and 100 μL of cell viability medium (10× dilution of PrestoBlue™ reagent) added and incubated for 17 minutes. Cell viability was determined by measuring absorbance using a microplate reader (Spark® 10M Tecan Life Sciences). After this measurement, media was aspirated using a multichannel aspirator and a glass pipet to completely aspirate from each well. Plates were stored or immediately used for mRNA isolation. All surfaces were cleaned using RNase away. 2× Lysis buffer was well mixed after incubation at ambient temperature. Fresh lysis buffer was prepared by mixing 0.125 μL of 0.5 mM DTT with 4.875 μL 2× lysis buffer. 1× lysis buffer containing DTT was then prepared by adding 5 μL dilution buffer to the 2× lysis buffer and mixing thoroughly. Thereafter, cell lysates were prepared by adding 1× lysis buffer to each sample well (96-well plate). Samples were incubated for 3-6 minutes at ambient temperature while shaking (350-400 rpm) to lyse the cells. Cells were scrapped with tips, and cell lysate (80 μL) was transferred to each well of the mRNA Catcher PLUS™ plate (Thermo Fisher Scientific). mRNA Catcher PLUS™ plate containing samples was covered with adhesive plastic film plate cover and incubated at ambient temperature for 45-60 minutes for RNA hybridization.
After hybridization, lysate was aspirated from the cells. […]

Row | SMILES | CYP3A4 Ind. fold (CYP3A4 mRNA fold change vs vehicle) [fold] | CYP3A4 Ind. (%)
1 | C=CC(=O)N1CCN([C@@H]2CCNc3c2nn(-c2ccc(Oc4ccccc4)cc2)c3C(N)=O)CC1 [Example 6, (7R)-2-(4-phenoxyphenyl)-7-[4-(prop-2-enoyl)piperazin-1-yl]-4,5,6,7-tetrahydro-2H-pyrazolo[4,3-b]pyridine-3-carboxamide] | 0.9 | −1.3
2 | C=CC(=O)N1CCC([C@@H]2CCNc3c(C(N)=O)c(-c4ccc(Oc5ccccc5)cc4)nn32)CC1 [Compound A, reference compound] |  | 125
